Values after ≈ are worked out from the molar mass of the structure shown. “Also recorded” adds a separate entry of the source. Where two headings read alike, the source gives them in different places.
Columns and labels:
[1] = DPPH microplate radical scavenging antioxidant assay; assay type: biochemical; settings: for IC50: DPPH, 30 min, mean ± SD (n = 3)
Method: The antioxidant activity of the synthesized compounds was measured in terms of hydrogen-donating or radical scavenging ability using the DPPH microplate-based method. Absorbance measurement was obtained using Microplate/cuvette reader (Spectramax M5, Molecular Devices, California, USA). Reference standard compound ascorbic acid was used as the positive control for this assay at concentrations ranging from 1.563 to 200 μg/mL. Test samples were prepared at a starting concentration of 200 μg/mL after mixing with 100 μl of 0.2 mM DPPH methanolic solution. A series of concentrations were tested for the samples in order to determine the 50% inhibitory concentration (IC50). Samples were incubated with DPPH in the dark for 30 min at room temperature (25° C.). The DPPH solution in methanol was prepared daily and stored in a flask covered with aluminum foil. DPPH radicals have an absorption maximum (λmax) at 515 nm, in which the absorbance values were measured and converted into percentage of antioxidant activity.
Methanolic DPPH solution without antioxidant was applied as control and background control was samples in methanol only. IC50 was determined using Graphpad Prism 7 (Graphpad Software Inc. CA, USA). The percentage inhibition was calculated by using the formula:
The assay was carried out in triplicate and performed as much as possible in an area protected against light. The data points are presented as the mean±standard deviation (SD) (n=3).

trypsin = experiment: Proteinase inhibitory activity (trypsin/casein); assay type: biochemical; settings: for % Inhibition of proteinase activity: 250 μg/ml, mean ± SD (n = 3)
Method: For proteinase inhibitory activity, the reaction mixture (2 ml) contained 0.06 mg trypsin, 20 mM Tris HCl buffer (pH 7.4) and 1 ml test sample (250 μg/ml for each compound). The mixture was incubated for 5 min and then 1 ml of 0.8% (w/v) casein was added. The mixture was incubated for an additional 20 min. 1 ml of 10% perchloric acid was added to arrest the reaction. The cloudy suspension was centrifuged, and the absorbance of the supernatant was read at 280 nm. Reference standard compound aspirin was used as the positive control for this assay. The experiment was performed in triplicate. Percentage inhibition of […] was calculated by using the following formula:
[formula] where Acontrol is the absorbance of the control reaction and Atest is the absorbance of the control reaction with sample.

tested microorganisms [2] = experiment: MIC by two fold serial dilution, summary over the tested microorganisms; assay type: cell-based; settings: against gram-positive bacteria
Text: (§1) The newly synthesized compounds were individually tested for their in vitro antimicrobial activity against the standard bacteria strains of American Type Culture Collection (ATCC), namely, Staphylococcus aureus ATCC 29213, Bacillus subtilis ATCC 6633, Bacillus megaterium ATCC 9885 (Gram-positive), Escherichia coli ATCC 2592 and Pseudomonas aeruginosa ATCC 27953 (Gram-negative). In addition, they were microbiologically tested against the locally isolated Saccharomyces cerevisiae (yeast) and the standard strain of Agricultural Research Service Culture Collection (NRRL) of the yeast like pathogenic fungus Candida albicans NRRL Y-477. The primary screening was carried out using the agar well diffusion method using nutrient agar (NA) medium and Sabourand dextrose agar (SDA) medium for pathological tested bacteria and yeast, respectively.
(§2) The bacteriostatic activity of the active compounds (having IZ>16 mm) was then evaluated using the two fold serial dilution technique. Two-fold serial dilutions of the tested compound solutions were prepared using the proper nutrient broth. The final concentration of the solutions were 1000, 500, 250 and 125 μg/ml. The tubes were then inoculated with the test organisms, grown in their suitable broth at 37° C. for 24 hours for tested microorganisms. (1×10^8 CFU/ml for bacteria and 1×10^6 CFU/ml of yeast), each 5 ml received 0.1 ml of the above inoculum and incubated at 37° C. for 24 h. The lowest concentration showing no growth was taken as the minimum inhibitory concentration (MIC).

[3] = test system: Candida albicans NRRL Y-477; experiment: Agar well diffusion, primary antimicrobial screening; assay type: cell-based; settings: for zone of inhibition at 10000 µg/mL: Candida albicans, NRRLY477, C. albicans NRRL Y-477, 100 μL of 10 mg/ml in DMSO, 24 h, read-out: Inhibition Diameter Zone CA; for antifungal activity compared with reference drug: C. albicans
Text: as §1
(§3) Antimicrobial tests were carried out by the agar well diffusion method using 100 μL of suspension containing 1×10^8 CFU/mL of pathological tested bacteria and 1×10^6 CFU/ml of yeast spread on NA and SDA, respectively. After the media was cooled and solidified, wells (10 mm in diameter) were made in the solidified agar and loaded with 100 μL of tested compound solution prepared by dissolving 10 mg of the chemical compound in one ml of dimethyl sulfoxide (DMSO). The inculcated plates were then incubated for 24 h at 37° C. for bacteria and yeast. Negative controls were prepared using DMSO employed for dissolving the tested compound. Ciprofloxacin (10 mg/ml) and ketoconazole (10 mg/ml) were used as standard for antibacterial and antifungal activity, respectively. After incubation time, antimicrobial activity was evaluated by measuring the zone of inhibition against the test organisms and compared with that of the standard. Antimicrobial activities were expressed as inhibition diameter zones in millimeters (mm). The experiment was carried out in triplicate and the average zone of inhibition was calculated.

[4] = test system: Candida albicans NRRL Y-477; experiment: MIC by two fold serial dilution technique; assay type: cell-based; settings: NRRLY477, C. albicans, read-out: Minimal Inhibitory Concentration (MIC) CA
Text: as §1, §2

[5] = test system: Saccharomyces cerevisiae (local isolate); experiment: MIC by two fold serial dilution technique; assay type: cell-based; settings: read-out: Minimal Inhibitory Concentration (MIC) SC
Text: as §1, §2

[6] = test system: Bacillus subtilis ATCC 6633; experiment: Agar well diffusion, primary antimicrobial screening; assay type: cell-based; settings: B. subtilis
Text: as §1, §3

[7] = test system: Saccharomyces cerevisiae (local isolate); experiment: as above; assay type: cell-based; settings: for antimicrobial activity compared with ketoconazole: S. cerevisiae; for zone of inhibition at 10000 µg/mL: Saccharomyces cerevisiae, 24 h, read-out: Inhibition Diameter Zone SC
Text: as §1, §3

[8] = test system: Staphylococcus aureus ATCC 29213; experiment: as above; assay type: cell-based; settings: for antibacterial activity compared with ciprofloxacin: S. aureus; for zone of inhibition at 10000 µg/mL: Staphylococcus aureus, ATCC29213, S. aureus ATCC 29213, 100 μL of 10 mg/ml in DMSO, 24 h, read-out: Inhibition Diameter Zone SA
Text: as §1, §3

[9] = test system: formaldehyde-induced paw oedema; experiment: Formaldehyde-induced rat paw oedema; assay type: in vivo; settings: 2.5 mg/kg orally
Method: Testing was performed to determine formaldehyde-induced rat paw oedema (edema). For the formaldehyde-induced rat paw oedema (edema) test, female Wister albino rats (150-175 g) were used for determination of the anti-inflammatory activities. The rats were obtained from the animal house colony of the National Organization for Drug Control and Research (NODCAR), Egypt. The animals were kept in standard plastic cages in an air conditioned room at 22±3° C., 55±5% humidity and supplied with standard laboratory diet and water ad libitum. All animal experimental procedures were carried out according to the Ethics Committee of the National Research Centre, Cairo, Egypt and followed the guidelines of the National Institutes of Health, Guide for Care and Use of Laboratory Animals (1985).
The percentage protection against inflammation was calculated by using following formula:
[formula] where Vc is the mean percentage increase in paw volume in the control and Vd is the mean percentage increase in paw volume after injection of the test compound. Values were expressed as mean±standard error (S.E.). Comparisons between mean values were carried out using two-way analysis of variance (ANOVA), followed by Tukey Kramer multiple comparisons test for all acute toxicity study tests. […] was considered significant. Graph pad prism software (version 6) was used to carry out all statistical tests.

tested microorganisms [10] = experiment: Agar well diffusion, summary over the tested microorganisms; assay type: cell-based; settings: against one or more microorganisms
Text: as §1, §3

[11] = test system: Bacillus megaterium ATCC 9885; experiment: Agar well diffusion, primary antimicrobial screening; assay type: cell-based; settings: B. megaterium
Text: as §1, §3

[12] = test system: Escherichia coli ATCC 2592; experiment: as above; assay type: cell-based
Text: as §1, §3

[13] = test system: Pseudomonas aeruginosa ATCC 27953; experiment: as above; assay type: cell-based
Text: as §1, §3

[14] = S. cerevisiae local isolate, 100 μL of 10 mg/ml in DMSO

For Cc1ccc2oc(=O)c3c(c2c1)OC(N)=C(C#N)C3c1ccc([N+](=O)[O-])cc1 (racemic) [Compound 5a, (±)-2-amino-9-methyl-4-(4-nitrophenyl)-5-oxo-4H,5H-pyrano[3,2-c]chromene-3-carbonitrile], the IC50 [1] was “— ((—): inactive (IC50 > 200 μg/mL))”, the “% Inhibition of proteinase activity” value (trypsin) was 17.38 ± 1.63% and the MIC (tested microorganisms [2]) was 500 to 1000 µg/mL (≈ 1330 to 2660 µM). For the same compound, the melting point was 259 to 261 °C.
With Cc1ccc2oc(=O)c3c(c2c1)OC(N=Cc1ccc(Cl)cc1Cl)=C(C#N)C3c1ccc([N+](=O)[O-])cc1 (racemic) [Compound 8e, (±)-2-((2,4-dichlorobenzylidene)amino)-9-methyl-4-(4-nitrophenyl)-5-oxo-4H,5H-pyrano[3,2-c]chromene-3-carbonitrile] the IC50 [1] was “— ((—): inactive (IC50 > 200 μg/mL))”, the zone of inhibition at 10000 µg/mL [3] was 20 mm and the MIC [4] was 500 µg/mL (≈ 939 µM). For the same compound, the MIC [5] was 500 µg/mL (≈ 939 µM), the “in vitro anti-proteinase activity compared with aspirin” value (trypsin) was “as potent” and the “% Inhibition of proteinase activity” value (trypsin) was 45.78 ± 1.62%. For the same compound, the melting point was 236 to 238 °C.
For O=c1oc2ccc(Cl)cc2c(O)c1S(=O)(=O)Nc1ccc(O)cc1 [Compound 11c, 6-Chloro-4-hydroxy-N-(4-hydroxyphenyl)-2-oxo-2H-chromene-3-sulfonamide], the IC50 [1] was 3.87 ± 0.409 µg/mL (≈ 10.5 µM), the “antioxidant activity” value ([1]; overview) was “particularly high antioxidant activity” and the “antibacterial activity compared with reference drug” value [6] was “comparable antibacterial activities to the standard”. For the same compound, the “antimicrobial activity compared with ketoconazole” value [7] was “higher than that of the corresponding control drug”, the zone of inhibition at 10000 µg/mL [7, 14] was 32 mm and the “antibacterial activity compared with ciprofloxacin” value [8] was “higher than the control ciprofloxacin”. The “in vitro anti-proteinase activity compared with aspirin” value (trypsin) was “as potent”, the “in vivo anti-inflammatory activity” value [9] was “significant protection against inflammation” and the “antimicrobial activity compared with standard antimicrobials (ciprofloxacin and ketoconazole)” value (tested microorganisms [10]) was “equal to or higher than the standard antimicrobials”. It also gave a melting point of 250 to 251 °C.
For Cc1ccc2oc(=O)c(S(=O)(=O)Nc3ccc(S(=O)(=O)Nc4nccs4)cc3)c(O)c2c1 [Compound 10f, 4-hydroxy-6-methyl-2-oxo-N-(4-(N-(thiazol-2-yl)sulfamoyl)phenyl)-2H-chromene-3-sulfonamide], the IC50 [1] was 83.52 ± 1.849 µg/mL (≈ 169 µM), the “in vitro anti-proteinase activity compared with aspirin” value (trypsin) was “as potent” and the “% Inhibition of proteinase activity” value (trypsin) was 43.88 ± 5.6%. For the same compound, the “in vivo anti-inflammatory activity” value [9] was “significant protection against inflammation” and the melting point was 167 to 169 °C.
For Cc1ccc2oc(=O)c3c(c2c1)OC(N)=C(C(N)=O)C3c1ccc([N+](=O)[O-])cc1 (racemic) [Compound 6a, (±)-2-amino-9-methyl-4-(4-nitrophenyl)-5-oxo-4H, 5H-pyrano[3,2-c]chromene-3-carboxamide], the IC50 [1] was “— ((—): inactive (IC50 > 200 μg/mL))”, the zone of inhibition at 10000 µg/mL [3] was < 15 mm and the zone of inhibition at 10000 µg/mL [7] was < 15 mm. The zone of inhibition at 10000 µg/mL [8] was < 15 mm, the “in vitro anti-proteinase activity compared with aspirin” value (trypsin) was “more potent” and the “% Inhibition of proteinase activity” value (trypsin) was 79.72±4.51%. For the same compound, the “in vivo anti-inflammatory activity” value [9] was “significant in vivo anti-inflammatory activity; also recorded: significant protection against inflammation” and the melting point was 142 to 144 °C.
In the case of O=C(/C=C/c1ccc(Cl)cc1)c1ccc(NS(=O)(=O)c2c(O)c3cc(Cl)ccc3oc2=O)cc1 [Compound 12c, (E)-6-chloro-N-(4-(3-(4-chlorophenyl)acryloyl)phenyl)-4-hydroxy-2-oxo-2H-chromene-3-sulfonamide], the IC50 [1] was “— ((—): inactive (IC50 > 200 μg/mL))”, the “antibacterial activity compared with ciprofloxacin” value [11] was “comparable to ciprofloxacin” and the “antibacterial activity compared with reference drug” value [6] was “comparable antibacterial activities to the standard”. The “antifungal activity compared with reference drug” value [3] was “higher antifungal activity”, the “antibacterial activity compared with ciprofloxacin” value ([12]; E. coli) was “comparable antibacterial potential” and the “antibacterial activity compared with standard” value ([13]; P. aeruginosa) was “comparable antibacterial activity to the standard”. For the same compound, the “antimicrobial activity compared with ketoconazole” value [7] was “higher than that of the corresponding control drug”, the zone of inhibition at 10000 µg/mL [7, 14] was 31 mm and the “antibacterial activity compared with ciprofloxacin” value [8] was “equal to ciprofloxacin”. For the same compound, the “% Inhibition of proteinase activity” value (trypsin) was 17.6 ± 6.86%, the “antimicrobial activity compared with standard antimicrobials (ciprofloxacin and ketoconazole)” value (tested microorganisms [10]) was “equal to or higher than the standard antimicrobials” and the melting point was 157 to 159 °C.
In the case of CC(=O)c1ccc(NS(=O)(=O)c2c(O)c3cc(Cl)ccc3oc2=O)cc1 [Compound 11e, N-(4-acetylphenyl)-6-chloro-4-hydroxy-2-oxo-2H-chromene-3-sulfonamide], the IC50 [1] was 32.85 ± 1.322 µg/mL (≈ 83.4 µM), the “antifungal activity compared with reference drug” value [3] was “higher antifungal activity” and the zone of inhibition at 10000 µg/mL [3] was < 15 mm. The zone of inhibition at 10000 µg/mL ([12]; Escherichia coli, ATCC2592, E. coli ATCC 2592, 100 μL of 10 mg/ml in DMSO, 24 h, read-out: Inhibition Diameter Zone EC) was < 15 mm, the zone of inhibition at 10000 µg/mL ([13]; Pseudomonas aeruginosa, ATCC27953, P. aeruginosa ATCC 27953, 100 μL of 10 mg/ml in DMSO, 24 h, read-out: Inhibition Diameter Zone PA) was < 15 mm and the zone of inhibition at 10000 µg/mL [7, 14] was < 15 mm. The zone of inhibition at 10000 µg/mL [8] was < 15 mm, the “% inhibition of rat paw oedema” value ([9]; one hour after induction of inflammation) was 9.45% and the melting point was 238 to 240 °C.

From patent US10730885B1, “Coumarin derivatives” (KING SAUD UNIVERSITY, priority 2019, dated 2020)
